Tests used:
[1] = system: male ZDF rats; assay: Chronic study: bodyweight; assay type: in vivo, rat
Method: (§1) After a wash-out of 9 days after the acute dose, the rats were retained in the same treatment groups for the chronic study. […] For the pair-feeding, rats were individually matched. Pair-fed rats together with controls were dosed with water daily. Rats were dosed daily at ca 9.30 AM. The initial doses were 120 mg/kg (high dose) and 60 mg/kg (low dose).
(§2) Food and water intake were measured daily. Bodyweights were measured twice weekly. Blood samples were taken for determination of glucose, insulin and leptin. Oral glucose tolerance was also measured.
(§3) Chronic Study—The compound (1) was made up in water. Animals were dosed at the appropriate rate daily by oral gavage. Control animals received water alone at the rate of 1 ml/kg. Doses were administered at ca 10 AM each day for a total of 30 days.
(§4) On Day 7 of the dosing procedure the dose levels of groups B & D were reduced to 60 mg/kg and 30 mg/kg due to concerns over that food intake suppression might be too great. The dosing procedure remained the same and animals were dosed for a further 23 days (30 days dosing in total).
The bodyweight of each rat was measured twice weekly throughout the course of the study.

[2] = system: male ZDF rats; assay: Acute study: single oral dose, dose-response, food intake; assay type: in vivo, rat
Excerpt: (§5) The animals used for this study were 30 male ZDF rats and 6 male lean ZDF rats obtained from Gmi (Indianapolis, Ind., USA). The rats arrived at 6 weeks of age. The acute study was undertaken when the rats were 7 weeks old and the chronic study started when the rats were 9 weeks old.
This was a single dose, dose-response study in ZDF rats. The 30 ZDF rats were allocated to one of 5 groups so that there were 6 rats in each group. In addition there were 6 untreated lean ZDF rats. All of the rats were housed individually. The acute dose of the compound as given by oral gavage at 9.30 AM. Control ZDF and lean rats received water. Food intake was measured over the periods 9.30-16.00 (daytime) and 16.00-9.30 (night-time) for 48 hours.
Six days prior to the single dose administration the rats were allocated to individual cages and were provided with food and water ad libitum. Four days prior to dose administration, 50 g of food was placed in each cage. Then two days prior to dose administration at ca 9.30 and 16.00 hours the food remaining was weighed and replaced with a further 50 g.
Acute Study—The compound (1) was made up in water. Animals were administered with a single oral dose of The compound (1) at the appropriate rate. Control animals received water alone at the rate of 1 ml/kg. The compound (1) was administered at ca 9.30 AM.
(§6) Daily food and water intake of each rat was measured by weight. Any spilled food was also collected and weighed so that an accurate estimate of food consumption could be made.

[3] = system: male ZDF rats; assay: Chronic study: blood glucose concentration in fasted rats; assay type: in vivo, rat; conditions: 5 h fast
Method: as §1, §3, §4
(§7) For measurement of blood glucose levels, a 20 μl sample of blood was taken from the tail vein whilst animals were in a fed state. A further 100 μl sample of blood was taken and the plasma separated by centrifugation (5000 rpm, 5 minutes). Plasma samples were then analysed for insulin and leptin using rat insulin or leptin ELISA kits (Crystal Chem Inc, PO Box 60225, Chicago, Ill. 60660, USA). Blood glucose, insulin and leptin levels were determined at approximately weekly intervals.
Fasted glucose, insulin and leptin levels were determined in an identical manner but animals were fasted for 5 hours prior to samples being taken.

[4] = system: male ZDF rats; assay: Chronic study: water intake; assay type: in vivo, rat
Method: as §1, §2, §3, §4, §6
(§8) In order to determine the potential long-term effects of The compound (1), the measurement of food and water intake were continued following withdrawal of treatment.

[5] = system: male ZDF rats; assay: Chronic study: blood glucose concentration in fed rats; assay type: in vivo, rat
Method: as §1, §3, §4, §7

[6] = system: male ZDF rats; assay: Chronic study: oral glucose tolerance test (OGTT); assay type: in vivo, rat; conditions: day 9, oral 2 g/kg glucose load
Method: Oral glucose tolerance was measured at 9 days following treatment (chronic study). Animals were fasted for 5 hours prior to the start of the OGTT. Animals were treated with glucose diluted in water at a rate of 2 g/kg ([…]). Blood samples were taken at 0, 30, 60 90 and 120 minutes. Glucose concentrations were determined by mixing blood samples with 0.38 ml of haemolysis reagent. A duplicate 20 μl aliquots of this mixture was taken for each individual sample and placed in an assay tray. To each well was added 180 μl aliquots of Trinders glucose reagent. The samples were mixed and then left for approximately 30 minutes. Samples were then analysed automatically using a SpectraMax 250 and SoftMax Pro software (Molecular devices Corporation, 1311 Orleans Drive, Sunnyvale, Calif. 94089, USA). The results were converted into glucose concentration values using Prism software, version 3.0 (GraphPad Software Inc, San Diego, Calif. USA)
The OGTT was repeated after 30 days treatment. The procedure was identical except that the pair-fed rats were each given 6 g of food at 7 AM with food being withdrawn at 9 AM for 5 hours.
Blood samples for insulin were obtained at 30 minutes prior to and 60 minutes post glucose load.
Oral glucose tolerance was determined after 8 days and after 29 days of treatment, i.e. on day 9 and day 30. Rats were fasted for 5 hours prior to receiving an oral 2 g/kg glucose load.

[7] = system: male ZDF rats; assay: Chronic study: daily oral dosing, food intake (incl. regression after withdrawal); assay type: in vivo, rat
Excerpt: as §5, §1, §2, §3, §4, §6, §8

[8] = system: normal rats; conditions: administered orally; previously shown; cited from earlier work
[9] = 120 mg/kg and 60 mg/kg daily oral

C/C=C(\C)C(=O)O[C@@H]1CC2C(CC=C3C[C@@H](OC4CC(OC)C(OC5CC(OC)C(OC6OC(C)C(O)C(OC)C6O)C(C)O5)C(C)O4)CC[C@@]32C)[C@@]2(O)CC[C@H](C(C)=O)[C@@]12C (stereo partly drawn) [compound (1), 3-0-[-β-D-thevetopyranosyl-(1-4)-β-D-cymaropyranosyl-(1-4)-β-D-cymaropyranosyl]-12β-0-tigloyloxy-14-hydroxy-14β-pregn-50-en-20-one]
growth rate after 14 days ([1]; chronic dosing): higher growth rate than the control ZDF rats | growth rate over the first 3 weeks of treatment relative to ZDF controls ([1]; chronic dosing, both doses): dose-related decrease in the growth rate | bodyweight plateau level ([1]; chronic study, ZDF controls plateaued at 360-370 g): more than 400 g | bodyweight by the end of the treatment period versus ZDF controls ([1]; high dose (120 then 60 mg/kg)): the same weight | bodyweight by the end of the treatment period versus ZDF controls ([1]; low dose (60 then 30 mg/kg)): heavier than the controls | body weight about 2 weeks after withdrawal versus ZDF controls ([1]; previously treated rats): significantly greater | food intake for the period 24-48 hours past a single oral dose ([2]; 20-160 mg/kg, daytime and night-time): reduced (both daytime and night-time) in a dose-related manner | food intake in the second day (significance) ([2]; single oral dose 80 mg/kg): significant | food intake in the second day (significance) ([2]; single oral dose 160 mg/kg): significant | night-time food intake compared with lean rats ([2]; single oral dose 160 mg/kg): the same as the lean rats | food intake in the first 24 hours (significance) ([2]; single oral dose 160 mg/kg (only dose significant)): Significant reduction | onset of effect on food intake ([2]; single oral dose given at 09.30): slow in onset | daytime food intake over the 7 hour period post-dosing ([2]; single oral dose, dose range 20-160 mg/kg): no significant effect | night-time food intake ([2]; single oral dose, dose range 20-160 mg/kg, first night): dose-related reduction | duration of response to a single dose ([2]; single oral dose, effects seen during second day): long | fasted blood glucose concentration versus ZDF controls ([3]; after 8 days treatment): significantly lower | fasted blood glucose concentration versus lean rats ([3]; after 8 days treatment): did not differ significantly | fasted blood glucose concentration versus ZDF controls ([3]; after 29 days treatment): significantly lower | fasted blood glucose concentration versus lean rats ([3]; after 29 days treatment): did not differ significantly | water intake after withdrawal of the treatment ([4]; after 30 days treatment, previously treated rats): rose slightly | time after withdrawal before blood glucose concentration and water intake approached that of the diabetic controls ([4]; after end of chronic dosing): approximately 2 weeks | diabetic state by water intake after 66 days ([4]; after withdrawal, versus untreated controls): not as diabetic as the untreated controls | time for water intake to be reduced to the level in the lean controls ([4]; high dose (120 or 60 mg/kg/day) or low dose (60 or 30 mg/kg/day), maintained throughout dosing): ≤ 4 days | treatment of established diabetes, overall conclusion ([5]; ZDF male rats): effective treatment | blood glucose concentration in fed rats ([5]; after 7 days of treatment): reduction in the blood glucose concentration from the diabetic level to a similar concentration as in lean littermates | blood glucose concentration in fed rats after withdrawal of therapy ([5]; after withdrawal): steadily increased | glycaemic status (plasma glucose, glucose tolerance, water intake) ([5]; chronic study, overall): substantial improvements in glycaemic status | glycaemia in fed rats during therapy ([5]; until withdrawal of therapy): Normal glycaemia was maintained | oral glucose tolerance [6]: only marginally impaired relative to lean | daytime food intake over the first 7 days [7, 9]: increasing effect | time until full effect on night-time food intake apparent [7, 9]: 2 days | appetite suppression, overall conclusion ([7]; ZDF male rats): powerful appetite suppressant | effectiveness on food intake reduction over the period 7-14 days ([7]; after dose reduction to 60 and 30 mg/kg): small reduction in the effectiveness | rebound hyperphagia on withdrawal of the drug ([7]; after end of chronic dosing): did not lead to a rebound hyperphagia | reduction in food intake after 7 days ([7]; both dose levels (120 and 60 mg/kg daily oral)): around 50% | food intake after 14 days ([7]; both groups, 60 and 30 mg/kg): stabilised | pharmacological tolerance to food intake reduction ([7]; chronic dosing): no indication of tolerance | food intake over the treatment period ([7]; chronic dosing, overall): marked reduction | food intake after withdrawal of drug treatment, relative to control ZDF rats ([7]; monitored for a further 17 days after withdrawal): only a small loss of efficacy | food intake in normal rats [8]: reduce food intake

Reference: US7416744B2, “Extracts, compounds and pharmaceutical compositions having anti-diabetic activity and their use” (priority 2000, dated 2008)
